Experiments:
hSTING-WT = hSTING-WT (Homo sapiens (Human), UniProt Q86WV6, H232R); assay: Radiometric filtration binding competition assay, hSTING-WT
Description: (§1) A radiometric filtration binding competition assay was performed to quantify the binding affinity of compounds of the present application for the human or mouse STING protein, or associated HAQ human isoform. […] The resulting dose response was fit by non-linear regression to determine an IC50 value, from which a Ki value for each compound was extrapolated.
(§2) The resulting complexes were then filtered, dried, and scintillation fluid was added and the remaining radio signal was measured to determine the degree of compound ligand inhibition. This assay format was optimized for both the WT and HAQ isoforms of the human protein and the mouse orthologue protein.
(§3) Probe Concentration: Minimum concentration that achieved max assay window • g. Assay Format: Scintillation Proximity Bead or Filtration Binding Plate • h. […] Assay incubation times for successive incubation steps
(§4) WT-hSWAT: WT_FBA_HIS-SUMO-hSWAT IC50 (μM) (“WT”=Wild-type); HAQ-hSWAT: HAQ_FBA_HIS-SUMO-hSWAT IC50 (μM) (“HAQ”=human HAQ allele of STING protein); and WT-mSWAT: MOUSE_FBA_HIS-SUMO-mnSWAT IC50 (μM) which is the mouse isoform of STING protein.

mSTING-R232 = mSTING-R232 (Mus musculus, UniProt Q3TBT3); assay: STING differential scanning fluorimetry (DSF) assay, mouse STING; conditions: net shift in melting temperature
hSTING-R232 = hSTING-R232 (Homo sapiens (Human), UniProt Q86WV6, H232R); assay: STING differential scanning fluorimetry (DSF) assay, WT human STING; conditions: WT (R232) human STING aa140-379, net shift in melting temperature
STING protein = STING protein (Homo sapiens (Human), UniProt Q86WV6, H232R); assay: Cell based reporter assay of IRF activation (IRF-luciferase), THP1-dual-KI R232; conditions: read-out: THP1-dual-KI R232_IRF(Luciferase)_Activity Maximum measured (%)
mSTING = mSTING (Mus musculus, UniProt Q3TBT3); assay: Radiometric filtration binding competition assay, mSTING
Description: as §1, §2, §3, §4

hSTING-WT, sequence (Q86WV6 140-379 H232R): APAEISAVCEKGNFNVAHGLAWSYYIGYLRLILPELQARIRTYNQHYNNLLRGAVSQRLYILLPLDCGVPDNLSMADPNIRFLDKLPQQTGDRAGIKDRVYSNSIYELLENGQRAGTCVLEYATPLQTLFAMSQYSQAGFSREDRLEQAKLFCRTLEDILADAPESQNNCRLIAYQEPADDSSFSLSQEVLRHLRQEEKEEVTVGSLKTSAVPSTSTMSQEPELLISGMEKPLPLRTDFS
hSTING-R232, sequence (Q86WV6 140-379 H232R): as above
STING protein, sequence (Q86WV6 whole entry H232R): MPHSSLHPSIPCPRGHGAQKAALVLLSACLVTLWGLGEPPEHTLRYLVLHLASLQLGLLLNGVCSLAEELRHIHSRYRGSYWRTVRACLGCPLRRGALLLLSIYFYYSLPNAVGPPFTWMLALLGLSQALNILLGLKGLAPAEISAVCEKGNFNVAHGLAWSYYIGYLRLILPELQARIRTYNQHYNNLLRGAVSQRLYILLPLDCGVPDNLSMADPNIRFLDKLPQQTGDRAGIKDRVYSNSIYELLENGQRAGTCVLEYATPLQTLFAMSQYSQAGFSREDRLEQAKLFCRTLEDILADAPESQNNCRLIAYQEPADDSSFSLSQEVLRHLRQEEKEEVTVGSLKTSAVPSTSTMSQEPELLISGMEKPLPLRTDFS

SMILES	IC50 (hSTING-WT)	MOUSE DSF_6xHIS-SUMO Tm Shift (° C.) (mSTING-R232)	WT_DSF_hSWAT Tm Shift (° C.) (hSTING-R232)	Emax (STING protein)	IC50 (mSTING)
CC(C)c1ccc(-c2ccc3c(c2)c(=O)c2ccc(Cl)c(Br)c2n3CC(=O)O)cc1 [Compound 109]	20 to 100 µM	B (“B” = 0-5° C.)	B (“B” = 0-2° C.)	< 5%	
O=C(O)Cn1c2ccccc2c(=O)c2cccc(Br)c21 [Compound 130]	> 300 µM	C (“C” = 5-15° C.)	B (“B” = 0-2° C.)		
COc1cccc2c(=O)c3ccccc3n(CC(=O)O)c12 [Compound 131]	> 300 µM	A (“A” < 0° C.)	A (“A” < 0° C.)		
Cc1cccc2c(=O)c3cccc(C)c3n(CC(=O)O)c12 [Compound 132]	100 to 300 µM	A (“A” < 0° C.)	A (“A” < 0° C.)	< 5%	
COc1ccc2c(c1C)c(=O)c1ccc(Cl)c(Cl)c1n2CC(=O)O [Compound 133]	100 to 300 µM	B (“B” = 0-5° C.)	A (“A” < 0° C.)		
Cc1cc2c(cc1F)c(=O)c1ccc(Cl)c(Cl)c1n2CC(=O)O [Compound 135]	100 to 300 µM	B (“B” = 0-5° C.)	A (“A” < 0° C.)	< 5%	
CC(C)(C)CNc1ccc2c(=O)c3ccc(Cl)c(Cl)c3n(CC(=O)O)c2c1 [Compound 138]	20 to 100 µM	C (“C” = 5-15° C.)	C (“C” = 2-7° C,)	> 50%	
CC1(C)CCCC(Nc2ccc3c(=O)c4ccc(Cl)c(Cl)c4n(CC(=O)O)c3c2)C1 (stereo not drawn) [Compound 139]	20 to 100 µM	D (“D” > 15° C.)	C (“C” = 2-7° C,)	< 5%	
CC1CCC(Nc2ccc3c(=O)c4ccc(Cl)c(Cl)c4n(CC(=O)O)c3c2)CC1 (stereo not drawn) [Compound 140]	20 to 100 µM	D (“D” > 15° C.)	C (“C” = 2-7° C,)	5 to 25%	
CC(C(=O)O)n1c2ccccc2c(=O)c2ccc(Cl)c(Cl)c21 (stereo not drawn) [Compound 141]	> 300 µM	A (“A” < 0° C.)			
O=C(O)Cn1c2cc(NC3CCOCC3)ccc2c(=O)c2ccc(Cl)c(Cl)c21 [Compound 142]	100 to 300 µM	C (“C” = 5-15° C.)	C (“C” = 2-7° C,)	< 5%	
O=C(O)Cn1c2cc(NC3CCNCC3)ccc2c(=O)c2ccc(Cl)c(Cl)c21 [Compound 143]	> 300 µM	B (“B” = 0-5° C.)	B (“B” = 0-2° C.)		
O=C(O)Cn1c2cc(N3CCc4ccccc43)ccc2c(=O)c2ccc(Cl)c(Cl)c21 [Compound 144]	100 to 300 µM	C (“C” = 5-15° C.)	C (“C” = 2-7° C,)	< 5%	
CC(C)c1ccc2c(=O)c3ccc(C#N)c(Cl)c3n(CC(=O)O)c2c1 [Compound 145]	100 to 300 µM	A (“A” < 0° C.)	A (“A” < 0° C.)	< 5%	
NC(=O)Cn1c2ccccc2c(=O)c2ccc(Cl)c(Cl)c21 [Compound 146]		B (“B” = 0-5° C.)			
CC(C)(C)CNc1ccc2c(=O)c3ccc(Cl)c(Br)c3n(CC(=O)O)c2c1 [Compound 148]	20 to 100 µM	C (“C” = 5-15° C.)	C (“C” = 2-7° C,)	25 to 50%	
O=C(O)Cn1c2cc(NCCN3CCc4ccccc43)ccc2c(=O)c2ccc(Cl)c(Cl)c21 [Compound 150]	100 to 300 µM	C (“C” = 5-15° C.)	C (“C” = 2-7° C,)	5 to 25%	

SMILES	IC50 (hSTING-WT)	MOUSE DSF_6xHIS-SUMO Tm Shift (° C.) (mSTING-R232)	WT_DSF_hSWAT Tm Shift (° C.) (hSTING-R232)	Emax (STING protein)	IC50 (mSTING)
O=C(O)Cn1c2cc(-c3ccc(F)cc3)ccc2c(=O)c2ccc(Cl)c(Cl)c21 [Compound 153]	20 to 100 µM	D (“D” > 15° C.)	C (“C” = 2-7° C,)	5 to 25%	
Cc1ccc(-c2ccc3c(=O)c4ccc(Cl)c(Cl)c4n(CC(=O)O)c3c2)cc1 [Compound 154]	100 to 300 µM	D (“D” > 15° C.)	C (“C” = 2-7° C,)	5 to 25%	
O=C(O)Cn1c2cc(-c3cccc(Cl)c3)ccc2c(=O)c2ccc(Cl)c(Cl)c21 [Compound 155]	100 to 300 µM	D (“D” > 15° C.)	C (“C” = 2-7° C,)	< 5%	
CC1(C)CCC=C(c2ccc3c(=O)c4ccc(Cl)c(Cl)c4n(CC(=O)O)c3c2)C1 [Compound 157]	20 to 100 µM	D (“D” > 15° C.)	C (“C” = 2-7° C,)	< 5%	
O=C(O)Cn1c2cc(C(F)(F)F)ccc2c(=O)c2ccc(Cl)c(Cl)c21 [Compound 165]	> 300 µM	C (“C” = 5-15° C.)	B (“B” = 0-2° C.)		
O=C(O)Cn1c2ccccc2c(=O)c2ccc(F)c(Br)c21 [Compound 173]	> 300 µM	C (“C” = 5-15° C.)	B (“B” = 0-2° C.)		
Cc1ccc2c(=O)c3ccc(Cl)cc3n([C@H](C)C(=O)O)c2c1 [Compound 179]	100 to 300 µM	B (“B” = 0-5° C.)	A (“A” < 0° C.)		
Cc1ccc2c(=O)c3ccc(Cl)cc3n([C@@H](C)C(=O)O)c2c1 [Compound 180]	20 to 100 µM	B (“B” = 0-5° C.)	A (“A” < 0° C.)		
[N-]=[N+]=NCc1c(Cl)ccc2c(=O)c3ccccc3n(CC(=O)O)c12 [Compound 305]	> 300 µM		B (“B” = 0-2° C.)	< 5%	> 300 µM
COc1cc(Cl)c(OC)c2c1c(=O)c1ccccc1n2CC(=O)O [Compound 313]	> 300 µM		B (“B” = 0-2° C.)	< 5%	> 300 µM
COc1c(Cl)c(O)cc2c(=O)c3ccccc3n(CC(=O)O)c12 [Compound 315]	> 300 µM		B (“B” = 0-2° C.)	< 5%	> 300 µM
COc1c(Cl)c(N)cc2c(=O)c3ccccc3n(CC(=O)O)c12 [Compound 316]	> 300 µM		B (“B” = 0-2° C.)	< 5%	> 300 µM
COc1c(Cl)ccc2c(=O)c3cc(O)c(C(C)C)cc3n(CC(=O)O)c12 [Compound 317]	> 300 µM		B (“B” = 0-2° C.)	< 5%	> 300 µM
COc1c(Cl)ccc2c(=O)c3cc(N(C)C)c(C(C)C)cc3n(CC(=O)O)c12 [Compound 319]	> 300 µM		A (“A” < 0° C.)	< 5%	> 300 µM
COc1c(Cl)ccc2c(=O)c3cc(N)c(C(C)C)cc3n(CC(=O)O)c12 [Compound 320]	100 to 300 µM		A (“A” < 0° C.)	< 5%	> 300 µM
CCOC(=O)Cn1c2cc(C)ccc2c(=O)c2ccc(Cl)c(OCC)c21 [Compound 321]	> 300 µM		B (“B” = 0-2° C.)	5 to 25%	> 300 µM
CCOc1c(Cl)ccc2c(=O)c3ccc(C)cc3n(CC(=O)OC)c12 [Compound 322]	> 300 µM		B (“B” = 0-2° C.)	5 to 25%	> 300 µM

Source: patent publication US11414387B2, “Oxoacridinyl acetic acid derivatives and methods of use” (Stingthera, Inc., priority 2017, dated 2022)
